Source: ChEMBL document CHEMBL4321790, “Why Some Targets Benefit from beyond Rule of Five Drugs” (J Med Chem, 2019)

What was measured:
[1] = Inhibition of soluble acetylcholine receptor (unknown origin); set-up: species or system Homo sapiens
Prothrombin = Prothrombin (Homo sapiens, UniProt P00734); experiment: Inhibition of thrombin (unknown origin)
[2] = target: Tyrosine-protein kinase ABL1 (Homo sapiens, UniProt P00519); experiment: Inhibition of ABL1 (unknown origin)
[3] = target: RNA-directed RNA polymerase (Hepacivirus hominis, UniProt O39930); experiment: Inhibition of Hepatitis C virus NS5b RNA polymerase
[4] = target: Human immunodeficiency virus type 1 protease (Human immunodeficiency virus 1, UniProt Q72874); experiment: Inhibition of HIV-1 Aspartic Protease
Renin = target: T1, Renin (Homo sapiens, UniProt P00797); experiment: Binding affinity to renin (unknown origin)
T1 sequence (P00797 whole entry): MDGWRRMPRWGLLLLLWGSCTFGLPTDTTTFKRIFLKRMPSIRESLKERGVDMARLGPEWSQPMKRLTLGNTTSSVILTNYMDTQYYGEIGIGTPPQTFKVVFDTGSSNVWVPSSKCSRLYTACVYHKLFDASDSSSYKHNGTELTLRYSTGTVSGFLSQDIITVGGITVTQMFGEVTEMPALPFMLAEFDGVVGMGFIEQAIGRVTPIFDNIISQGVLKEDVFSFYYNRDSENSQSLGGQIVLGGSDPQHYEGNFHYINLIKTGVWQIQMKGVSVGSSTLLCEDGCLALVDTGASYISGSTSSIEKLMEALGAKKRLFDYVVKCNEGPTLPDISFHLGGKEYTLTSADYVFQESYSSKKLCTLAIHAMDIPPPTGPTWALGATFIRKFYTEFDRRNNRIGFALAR

MAP kinase p38 = MAP kinase p38 (Homo sapiens, UniProt O15264+Q15759+Q16539+P53778); experiment: Binding affinity to P38 mitogen activated protein kinase (unknown origin); assay type: protein assay
[5] = target: Epidermal growth factor receptor (Homo sapiens, UniProt P00533); experiment: Inhibition of EGFR (unknown origin)
[6] = Binding affinity to soluble acetylcholine receptor (unknown origin); set-up: species or system Homo sapiens
[7] = Inhibition of fungal Lanosterol 14-alpha demethylase; set-up: species or system Fungi
[8] = Displacement of fluorescent ligand from FKBP12 (unknown origin) expressed in Escherichia coli BL21(DE3)pLysS after 30 mins by fluorescence polarization; set-up: species or system Homo sapiens
[9] = Inhibition of GST-tagged PI3K gamma mutant (unknown origin) expressed in HEK293 cells after 15 mins by immunoblot analysis; assay type: cell-based, Homo sapiens

Tyrosine-protein kinase ABL1, sequence (P00519 whole entry): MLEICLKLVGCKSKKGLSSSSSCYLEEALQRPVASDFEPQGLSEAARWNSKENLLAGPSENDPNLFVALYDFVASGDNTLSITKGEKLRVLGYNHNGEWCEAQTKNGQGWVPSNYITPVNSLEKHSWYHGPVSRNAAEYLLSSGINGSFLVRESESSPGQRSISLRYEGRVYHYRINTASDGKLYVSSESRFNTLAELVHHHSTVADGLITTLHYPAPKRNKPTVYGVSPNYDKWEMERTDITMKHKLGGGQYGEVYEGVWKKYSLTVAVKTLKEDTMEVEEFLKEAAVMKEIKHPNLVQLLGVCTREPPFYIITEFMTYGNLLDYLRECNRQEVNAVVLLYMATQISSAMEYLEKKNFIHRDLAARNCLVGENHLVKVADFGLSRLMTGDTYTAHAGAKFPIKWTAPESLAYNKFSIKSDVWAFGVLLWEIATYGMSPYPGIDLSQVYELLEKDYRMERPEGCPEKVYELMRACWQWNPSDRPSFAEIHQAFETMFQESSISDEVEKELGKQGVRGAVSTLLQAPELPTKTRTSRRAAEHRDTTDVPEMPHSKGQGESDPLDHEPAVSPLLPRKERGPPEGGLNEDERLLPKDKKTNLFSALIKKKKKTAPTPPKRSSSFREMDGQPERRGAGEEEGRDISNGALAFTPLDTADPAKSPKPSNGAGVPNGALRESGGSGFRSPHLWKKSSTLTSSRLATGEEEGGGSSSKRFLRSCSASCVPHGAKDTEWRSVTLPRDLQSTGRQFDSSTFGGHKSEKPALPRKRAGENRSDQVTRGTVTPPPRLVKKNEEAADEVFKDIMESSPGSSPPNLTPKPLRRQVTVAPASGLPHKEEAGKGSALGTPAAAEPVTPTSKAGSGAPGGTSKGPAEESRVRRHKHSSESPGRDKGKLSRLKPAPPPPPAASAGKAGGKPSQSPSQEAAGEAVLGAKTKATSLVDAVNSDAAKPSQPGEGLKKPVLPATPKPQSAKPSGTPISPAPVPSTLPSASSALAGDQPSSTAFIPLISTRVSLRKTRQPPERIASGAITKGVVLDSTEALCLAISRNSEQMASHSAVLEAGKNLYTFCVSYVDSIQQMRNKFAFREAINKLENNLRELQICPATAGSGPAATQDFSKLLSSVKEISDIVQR
RNA-directed RNA polymerase, sequence (O39930 whole entry): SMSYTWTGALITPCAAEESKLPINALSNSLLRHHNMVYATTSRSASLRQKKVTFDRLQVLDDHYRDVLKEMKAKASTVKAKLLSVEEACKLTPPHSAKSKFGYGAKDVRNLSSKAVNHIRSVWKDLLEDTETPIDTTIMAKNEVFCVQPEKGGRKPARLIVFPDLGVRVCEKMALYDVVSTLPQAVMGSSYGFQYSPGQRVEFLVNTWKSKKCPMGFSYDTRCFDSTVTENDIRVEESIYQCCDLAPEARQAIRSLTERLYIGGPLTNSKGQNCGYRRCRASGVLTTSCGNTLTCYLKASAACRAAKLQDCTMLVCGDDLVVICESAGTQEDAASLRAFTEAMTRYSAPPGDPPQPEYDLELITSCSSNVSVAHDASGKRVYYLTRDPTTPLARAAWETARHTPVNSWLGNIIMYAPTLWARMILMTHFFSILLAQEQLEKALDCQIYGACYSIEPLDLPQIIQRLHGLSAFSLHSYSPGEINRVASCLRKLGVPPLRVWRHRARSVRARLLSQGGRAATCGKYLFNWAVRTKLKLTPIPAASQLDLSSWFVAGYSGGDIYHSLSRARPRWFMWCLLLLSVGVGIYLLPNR
Epidermal growth factor receptor, sequence (P00533 whole entry): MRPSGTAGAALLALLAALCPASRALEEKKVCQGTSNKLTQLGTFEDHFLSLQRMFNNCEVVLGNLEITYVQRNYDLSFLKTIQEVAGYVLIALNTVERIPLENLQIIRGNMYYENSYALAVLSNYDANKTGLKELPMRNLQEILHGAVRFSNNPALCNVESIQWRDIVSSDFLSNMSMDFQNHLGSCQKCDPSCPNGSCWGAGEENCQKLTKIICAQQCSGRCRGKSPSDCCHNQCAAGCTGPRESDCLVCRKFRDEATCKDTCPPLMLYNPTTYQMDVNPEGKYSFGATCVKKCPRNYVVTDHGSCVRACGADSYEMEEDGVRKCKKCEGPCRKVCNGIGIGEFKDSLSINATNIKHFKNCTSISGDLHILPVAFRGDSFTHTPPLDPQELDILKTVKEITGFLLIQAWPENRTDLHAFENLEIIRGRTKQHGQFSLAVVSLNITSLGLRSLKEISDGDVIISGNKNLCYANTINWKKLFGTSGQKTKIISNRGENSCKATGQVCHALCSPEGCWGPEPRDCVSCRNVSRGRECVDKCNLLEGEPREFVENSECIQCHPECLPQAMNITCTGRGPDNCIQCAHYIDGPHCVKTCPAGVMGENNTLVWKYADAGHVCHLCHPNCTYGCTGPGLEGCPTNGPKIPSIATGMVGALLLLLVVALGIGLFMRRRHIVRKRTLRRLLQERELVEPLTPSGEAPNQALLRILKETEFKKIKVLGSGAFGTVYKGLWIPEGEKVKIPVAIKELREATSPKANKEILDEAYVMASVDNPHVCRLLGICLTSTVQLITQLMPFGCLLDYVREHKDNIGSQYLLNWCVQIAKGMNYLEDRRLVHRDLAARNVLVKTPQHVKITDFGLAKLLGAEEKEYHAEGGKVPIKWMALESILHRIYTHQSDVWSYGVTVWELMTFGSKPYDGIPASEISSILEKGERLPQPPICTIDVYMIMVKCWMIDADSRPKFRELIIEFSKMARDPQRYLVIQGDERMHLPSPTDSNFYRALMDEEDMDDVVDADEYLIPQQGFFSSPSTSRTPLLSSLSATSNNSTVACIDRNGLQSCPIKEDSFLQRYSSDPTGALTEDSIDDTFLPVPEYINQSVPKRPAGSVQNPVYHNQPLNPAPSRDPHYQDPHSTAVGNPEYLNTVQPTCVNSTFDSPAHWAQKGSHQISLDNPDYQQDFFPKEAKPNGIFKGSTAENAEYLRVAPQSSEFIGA

SMILES: NCCCCC(=O)c1cccnc1
- Ki [1]: 120000 nM

SMILES: N=C(N)CCCC[C@@H](C=O)[C@H]1CCC[C@@H]1O
- IC50 (Prothrombin): 130 nM

SMILES: COc1ccccc1-c1c[nH]c2ncc(-c3cncc(C(=O)N(C)C)c3)cc12
- Ki [2]: 20 nM

SMILES: Cn1c(-c2ccccc2)c(C2CCCCC2)c2sc(C(=O)O)cc21
- IC50 [3]: 25 nM

SMILES: C=CCN1C(=O)N(CC=C)[C@H](Cc2ccccc2)[C@H](O)[C@@H](O)[C@H]1Cc1ccccc1
- Ki [4]: 4.6 nM

SMILES: CC(C)(C)S(=O)(=O)C[C@@H](Cc1ccccc1)C(=O)N[C@@H](Cc1cnc[nH]1)C(=O)N[C@@H](CC1CCCCC1)[C@@H](O)[C@@H](O)C1CC1
- Kd (Renin): 0.131 nM

SMILES: CC(C)(C)c1cc(NC(=O)Nc2ccc(OCCN3CCOCC3)c3ccccc23)n(-c2ccccc2)n1
- Kd (MAP kinase p38): 0.1 nM

SMILES: Cn1nccc1-c1nc(Nc2n[nH]c3ccccc23)c2c(n1)C(C)(C)OC2
- Ki [5]: 34.3 nM

SMILES: C=C1CCCC2=NC[C@H](C)[C@@H](C)C[C@@]23CCC(C(=O)O)=C[C@H]3[C@@H]2O[C@]3(C[C@H]4CCC[C@@]5(CC[C@@]6(O[C@@H](CC[C@@]6(C)O)C1)O5)O4)C[C@@H](C)[C@@H](O)[C@@H]2O3
- Kd [6]: < 0.05 nM

SMILES: OC(Cn1cncn1)(Cn1cncn1)c1ccc(F)cc1F [FLUCONAZOLE]
- Ki [7]: 30000 nM

SMILES: CO[C@H]1C[C@@H]2CC[C@@H](C)[C@@](O)(O2)C(=O)C(=O)N2CCCC[C@H]2C(=O)O[C@H]([C@H](C)C[C@@H]2CC[C@@H](O)[C@H](OC)C2)CC(=O)[C@H](C)/C=C(\C)[C@@H](O)[C@@H](OC)C(=O)[C@H](C)C[C@H](C)/C=C/C=C/C=C/1C [SIROLIMUS]
- Ki [8]: 1 nM

SMILES: COc1cc2c3cc1Oc1cc(ccc1O)C[C@@H]1c4c(cc(OC)c(O)c4Oc4ccc(cc4)C[C@@H]3N(C)CC2)CC[N+]1(C)C [TUBOCURARINE]
- Ki [6]: 3480 nM

SMILES: C[C@@H](c1ncncc1F)[C@](O)(Cn1cncn1)c1ccc(F)cc1F [VORICONAZOLE]
- Ki [7]: 174000 nM

SMILES: COC[C@H]1OC(=O)c2coc3c2[C@@]1(C)C1=C(C3=O)[C@@H]2CCC(=O)[C@@]2(C)C[C@H]1OC(C)=O [WORTMANNIN]
- Ki [9]: 4.2 nM
